From publication PMC8157534 (ACS Nano, 2021)

Biological target: TmrAB (Thermus thermophilus, UniProt Q72J04+Q72J05)
Details: 2 mM Mg-ATP, 2 mM MgCl2, pH 7.5, 0.2% DDM, 40 °C, 8 min

Sequence of TmrAB (Q72J05 1-600): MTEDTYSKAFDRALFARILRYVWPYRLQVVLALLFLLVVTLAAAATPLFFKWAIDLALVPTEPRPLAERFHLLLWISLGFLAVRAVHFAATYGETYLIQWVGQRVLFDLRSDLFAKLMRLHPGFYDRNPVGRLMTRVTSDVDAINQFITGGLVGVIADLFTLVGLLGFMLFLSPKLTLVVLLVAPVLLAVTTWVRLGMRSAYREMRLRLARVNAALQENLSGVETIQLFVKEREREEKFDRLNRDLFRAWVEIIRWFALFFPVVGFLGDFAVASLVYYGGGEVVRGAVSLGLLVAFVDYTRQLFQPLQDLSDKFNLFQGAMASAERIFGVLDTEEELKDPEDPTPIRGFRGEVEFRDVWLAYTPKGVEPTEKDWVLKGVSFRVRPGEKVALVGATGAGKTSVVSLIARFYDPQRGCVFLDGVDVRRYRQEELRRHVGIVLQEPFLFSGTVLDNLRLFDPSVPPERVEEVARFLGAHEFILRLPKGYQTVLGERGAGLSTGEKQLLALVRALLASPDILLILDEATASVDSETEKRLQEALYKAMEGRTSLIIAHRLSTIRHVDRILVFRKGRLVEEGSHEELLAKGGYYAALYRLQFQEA
Sequence of TmrAB (Q72J04 1-578): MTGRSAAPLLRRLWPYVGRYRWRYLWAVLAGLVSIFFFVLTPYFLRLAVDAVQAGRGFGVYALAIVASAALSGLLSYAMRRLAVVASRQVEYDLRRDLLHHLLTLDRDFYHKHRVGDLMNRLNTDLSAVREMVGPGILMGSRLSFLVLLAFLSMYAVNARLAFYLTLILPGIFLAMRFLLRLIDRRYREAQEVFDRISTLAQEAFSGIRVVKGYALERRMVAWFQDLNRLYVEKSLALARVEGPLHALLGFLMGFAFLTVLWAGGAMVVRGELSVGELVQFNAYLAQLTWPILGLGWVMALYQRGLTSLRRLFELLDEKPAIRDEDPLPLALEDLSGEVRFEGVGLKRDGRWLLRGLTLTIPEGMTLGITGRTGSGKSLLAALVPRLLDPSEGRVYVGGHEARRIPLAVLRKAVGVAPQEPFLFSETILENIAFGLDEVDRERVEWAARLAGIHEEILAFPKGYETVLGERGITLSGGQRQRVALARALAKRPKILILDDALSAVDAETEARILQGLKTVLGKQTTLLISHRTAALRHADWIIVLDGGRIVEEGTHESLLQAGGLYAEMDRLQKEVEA

Nc1ncnc2c1ncn2[C@@H]1O[C@H](COP(=O)(O)OP(=O)(O)OP(=O)(O)O)[C@@H](O)[C@H]1O [ATP]
ATPase activity: A high ATPase activity above background demonstrated TmrAB function (Figure 1c)
